Results published in US20050250794A1, “Methods of treating a disorder” (priority 2003, published 2005).
Read-outs that look alike come from different tables or passages of the source.

What was measured:
human SirT1 = molecular target: T1, human SirT1 (Homo sapiens, UniProt Q96EB6); test: SirT1 Fluor de Lys enzymatic deacetylase assay; assay type: biochemical
T1 construct: purchased Biomol SE-239
T1 sequence (Q96EB6 1-747): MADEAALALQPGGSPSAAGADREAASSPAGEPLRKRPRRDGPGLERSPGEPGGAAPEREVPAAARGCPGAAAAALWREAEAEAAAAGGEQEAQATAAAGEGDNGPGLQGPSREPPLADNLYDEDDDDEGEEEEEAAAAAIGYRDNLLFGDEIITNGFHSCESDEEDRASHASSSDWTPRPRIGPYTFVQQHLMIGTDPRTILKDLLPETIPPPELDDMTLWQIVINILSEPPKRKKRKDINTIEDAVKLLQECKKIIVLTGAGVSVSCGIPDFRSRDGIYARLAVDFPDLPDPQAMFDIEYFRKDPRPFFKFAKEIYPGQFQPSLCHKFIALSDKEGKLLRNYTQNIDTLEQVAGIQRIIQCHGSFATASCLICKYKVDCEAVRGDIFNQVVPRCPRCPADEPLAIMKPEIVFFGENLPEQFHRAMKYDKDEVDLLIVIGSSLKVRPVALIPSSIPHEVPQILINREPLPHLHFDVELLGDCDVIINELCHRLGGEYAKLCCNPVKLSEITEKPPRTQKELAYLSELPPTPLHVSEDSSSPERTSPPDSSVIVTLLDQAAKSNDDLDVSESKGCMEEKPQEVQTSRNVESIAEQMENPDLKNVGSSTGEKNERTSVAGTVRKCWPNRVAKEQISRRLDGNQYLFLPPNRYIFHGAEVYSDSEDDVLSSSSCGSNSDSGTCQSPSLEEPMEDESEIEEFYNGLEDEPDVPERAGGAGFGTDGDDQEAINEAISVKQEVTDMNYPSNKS
Text: An exemplary assay method includes a 1536 well format of the SirT1 enzymatic assay that is based on the commercial “Fluor-de-Lys” assay principle by Biomol, which is fluorogenic (www.biomol.com/store/Product_Data_PDFs/ak500.pdf). In this assay, deacetylation of the e-amino function of a lysyl residue is coupled to a fluorogenic “development step that is dependent on the unblocked e-amino functionality and generates fluorescent aminomethylcoumarin. Fluorescence can be read on a commercial macroscopic reader.
Step Description • 1 Prepare amount of 2× Substrates necessary for the number of wells to be assayed.

SirT2 = molecular target: T2, SirT2 (Homo sapiens, UniProt Q8IXJ6); test: SirT2 activity (Tables 1 and 2); assay type: biochemical
T2 sequence (Q8IXJ6 1-389): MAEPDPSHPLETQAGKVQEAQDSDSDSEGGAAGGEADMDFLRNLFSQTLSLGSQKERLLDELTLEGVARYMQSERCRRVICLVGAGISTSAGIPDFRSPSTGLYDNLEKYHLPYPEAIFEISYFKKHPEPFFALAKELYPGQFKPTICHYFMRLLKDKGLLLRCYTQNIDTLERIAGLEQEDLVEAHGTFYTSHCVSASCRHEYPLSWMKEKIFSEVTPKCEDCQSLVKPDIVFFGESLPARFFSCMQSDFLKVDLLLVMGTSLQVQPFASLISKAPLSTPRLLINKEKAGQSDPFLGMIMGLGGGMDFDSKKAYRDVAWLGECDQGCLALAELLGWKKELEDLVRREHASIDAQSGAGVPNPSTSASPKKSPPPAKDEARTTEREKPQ

GFP-hSIRT2 isoform 1 = molecular target: T3, GFP-hSIRT2 isoform 1 (Homo sapiens, UniProt Q8IXJ6); test: Acetylated tubulin staining in HeLa cells transfected with GFP-hSIRT2 isoform 1; assay type: cell-based; conditions: 50 μM compound with 1 μM TSA, added 36 hours post transfection, stained next morning; versus DMSO
T3 construct: expressed in transfected cells; host or cells: HeLa
T3 sequence (Q8IXJ6 1-389): T2 sequence (Q8IXJ6 1-389)
Description: HeLa cells were transfected with GFP-hSIRT2 isoform 1. At 36 hours post transfection 1 μM of TSA and either DMSO or 50 μM of Compound 8 was added. The next morning cells were fixed, permeabilized, and stained for acetylated tubulin.

[1] = Table 1, Activity of Triazoles (conc. in μM), read-out: SirT1
[2] = Table 1, Activity of Triazoles (conc. in μM)
[3] = Table 2, Activity of representative compounds (conc. in μM), read-out: SirT1
[4] = Table 2, Activity of representative compounds (conc. in μM)
[5] = Table 3, p53-382 Fluor de Lys substrate, read-out: SirT1 p53-382-FdL IC50

NC(=O)CSc1nnc(Cc2c[nH]c3ccccc23)n1Cc1ccccc1 [Compound 1, 2-[4-Benzyl-5-(1H-indol-3-ylmethyl)-4H-[1,2,4]triazol-3-ylsulfanyl]-acetamide]
IC50 (human SirT1; [1]): 1 to 10 µM
IC50 (SirT2; [2]): > 10 µM

COc1ccc(-n2c(COc3cccc4ccccc34)nnc2SCC(N)=O)cc1 [Compound 2, 2-[4-(4-Methoxy-phenyl)-5-(naphthalen-1-yloxymethyl)-4H-[1,2,4]triazol-3-ylsulfanyl]-acetamide]
IC50 (human SirT1; [1]): 1 to 10 µM
IC50 (SirT2; [2]): > 10 µM

Cc1ccc(-n2c(Cc3ccccc3)nnc2SCC(N)=O)cc1 [Compound 3, 2-(5-Benzyl-4-p-tolyl-4H-[1,2,4]triazol-3-ylsulfanyl)-acetamide]
IC50 (human SirT1; [1]): 1 to 10 µM
IC50 (SirT2; [2]): > 10 µM

Cc1ccc(-n2c(SCC(N)=O)nnc2-c2ccccc2Br)cc1 [Compound 4, 2-[5-(2-Bromo-phenyl)-4-p-tolyl-4H-[1,2,4]triazol-3-ylsulfanyl]-acetamide]
IC50 (human SirT1; [1]): > 10 µM
IC50 (SirT2; [2]): 1 to 10 µM

O=C(O)CSc1nc2sc3c(c2c(=O)n1C1CCCCC1)CCC3 [Compound 5, (5-Cyclohexyl-4-oxo-2,3,4,5-tetrahydro-1H-8-thia-5,7-diaza-cyclopenta[a]inden-6-ylsulfanyl)-acetic acid]
IC50 (human SirT1; [3]): 1 to 10 µM
IC50 (SirT2; [4]): > 10 µM

NC(=O)Cn1c(=O)oc2cc(Br)ccc21 [Compound 6, 2-(6-Bromo-2-oxo-benzooxazol-3-yl)-acetamide]
IC50 (human SirT1; [3]): 1 to 10 µM
IC50 (SirT2; [4]): > 10 µM

Nn1c(CCC(=O)O)nc2sc3c(c2c1=O)CCCC3 [Compound 7, 3-(3-Amino-4-oxo-3,4,5,6,7,8-hexahydro-benzo[4,5]thieno[2,3-d]pyrimidin-2-yl)-propionic acid]
IC50 (human SirT1; [3]): > 10 µM
IC50 (SirT2; [4]): > 10 µM

NC(=O)COC(=O)c1sc2ccccc2c1Cl [Compound 8, 3-Chloro-benzo[b]thiophene-2-carboxylic acid carbamoylmethyl ester]
acetylation of tubulin in cells expressing SIRT2 (GFP-hSIRT2 isoform 1): more highly acetylated

Cc1sc(NC(=O)Cn2nc([N+](=O)[O-])cc2C)c(C(N)=O)c1C [Compound 9, 4,5-Dimethyl-2-[2-(5-methyl-3-nitro-pyrazol-1-yl)-acetylamino]-thiophene-3-carboxylic acid amide]
IC50 (human SirT1; [5]): > 10 µM

Cc1sc(NC(=O)c2ccc(Br)o2)c(C(N)=O)c1C [Compound 11, 5-Bromo-furan-2-carboxylic acid (3-carbamoyl-4,5-dimethyl-thiophen-2-yl)-amide]
IC50 (human SirT1; [5]): > 10 µM

Cc1sc(NC(=O)C2CCCO2)c(C(N)=O)c1C (stereo not shown) [Compound 15, Tetrahydro-furan-2-carboxylic acid (3-carbamoyl-4,5-dimethyl-thiophen-2-yl)-amide]
IC50 (human SirT1; [5]): > 10 µM

Cc1sc(NC(=O)C2CC2)c(C(N)=O)c1C [Compound 26, 2-(Cyclopropanecarbonyl-amino)-4,5-dimethyl-thiophene-3-carboxylic acid amide]
IC50 (human SirT1; [5]): > 10 µM

Cc1sc(NC(=O)c2ccncc2)c(C(N)=O)c1C [Compound 29, N-(3-Carbamoyl-4,5-dimethyl-thiophen-2-yl)-isonicotinamide]
IC50 (human SirT1; [5]): > 10 µM

Cc1sc(NC(=O)c2cnccn2)c(C(N)=O)c1C [Compound 30, Pyrazine-2-carboxylic acid (3-carbamoyl-4,5-dimethyl-thiophen-2-yl)-amide]
IC50 (human SirT1; [5]): > 10 µM

CC1CCc2c(sc(NC(=O)C3CCCC3)c2C(N)=O)C1 (stereo not shown) [Compound 32, 2-(Cyclopentanecarbonyl-amino)-6-methyl-4,5,6,7-tetrahydro-benzo[b]thiophene-3-carboxylic acid amide]
IC50 (human SirT1; [5]): < 1 µM

CC(C)CC(=O)Nc1sc2c(c1C(N)=O)CCCCCC2 [Compound 33, 2-(3-Methyl-butyrylamino)-4,5,6,7,8,9-hexahydro-cycloocta[b]thiophene-3-carboxylic acid amide]
IC50 (human SirT1; [5]): > 10 µM

NC(=O)c1c(NC(=O)C2CC2)sc2c1CCCCC2 [Compound 34, 2-(Cyclopropanecarbonyl-amino)-5,6,7,8-tetrahydro-4H-cyclohepta[b]thiophene-3-carboxylic acid amide]
IC50 (human SirT1; [5]): > 10 µM

CCC(=O)Nc1sc2c(c1C(N)=O)CCC(C)C2 (stereo not shown) [Compound 35, 6-Methyl-2-propionylamino-4,5,6,7-tetrahydro-benzo[b]thiophene-3-carboxylic acid amide]
IC50 (human SirT1; [5]): 1 to 10 µM

CC1CCc2c(sc(N)c2C(N)=O)C1 (stereo not shown) [Compound 36, 2-Amino-6-methyl-4,5,6,7-tetrahydro-benzo[b]thiophene-3-carboxylic acid amide]
IC50 (human SirT1; [5]): > 10 µM

CCC1CCc2c(sc(N)c2C(N)=O)C1 (stereo not shown) [Compound 38, 2-Amino-6-ethyl-4,5,6,7-tetrahydro-benzo[b]thiophene-3-carboxylic acid amide]
IC50 (human SirT1; [5]): > 10 µM

CSc1c(CC(=O)NCCO)n(C)c2ccc(C)cc12 [Compound 48, 2-(1,5-Dimethyl-3-methylsulfanyl-1H-indol-2-yl)-N-(2-hydroxy-ethyl)-acetamide]
IC50 (human SirT1; [5]): > 10 µM
